Assay results as given in US20230355605A1, “DRUG FOR ENHANCING FIBRINOLYTIC SYSTEM, AND USE THEREFOR” (priority 2020, published 2023).

How the values were obtained:
[1] = test system: rat model of ferric chloride-induced carotid thrombosis; test: Rat model of ferric chloride-induced carotid thrombosis; assay type: in vivo; settings: 0.3, 1, 3 mg/kg oral
Protocol: The evaluation of the antithrombotic effect was performed according to the method described in Test Example 3 of WO2010/113022. Specifically, two hours before the procedure, the present compound suspended in a 0.5% sodium carboxymethylcellulose (CMC-Na) aqueous solution was orally administered to test groups of rats at dosages of 0.3, 1, and 3 mg/kg. […] Under anesthesia, ferric chloride was applied to a carotid artery of each rat to induce thrombus formation by damaging the blood vessel, and the time from thrombus formation to occlusion of the carotid artery (occlusion time) up to 30 minutes was measured with a Doppler blood flowmeter. Occlusion of the blood flow was defined as a state in which the average blood flow indicated zero on the chart.
The bleeding effect was also evaluated by measuring the bleeding time. The bleeding time was measured in the same rats as above by sticking the tail of each rat with an animal lancet 20 minutes after the ferric chloride treatment and then observing the presence or absence of blood adhered to filter paper every 30 seconds. The time until bleeding stopped (bleeding time) was used as an index of bleeding.

[2] = test system: cynomolgus monkey model of saphenous arterial thrombus; test: Cynomolgus monkey model of saphenous arterial thrombus (PIT model); assay type: in vivo
Protocol: The thrombus formation inhibitory effect of the present compound was evaluated using a cynomolgus monkey model of saphenous arterial thrombus (PIT model) .
Before the procedure, the present compound suspended in a 0.5% CMC-Na aqueous solution was orally administered to test groups of cynomolgus monkeys at dosages of 0.1, 0.3, 1, and 3 mg/kg. […] A light irradiation probe was placed on a saphenous artery of each cynomolgus monkey to cause thrombus formation by applying green light of 540 nm for 20 minutes at the time of intravenously administering rose bengal (20 mg/kg). A decrease in blood flow due to this thrombus formation was measured with a pulse Doppler blood flowmeter, and the thrombus formation inhibitory effect of the present compound was evaluated by measuring the occlusion time on the first day and the cumulative occlusion time.

cynomolgus monkeys = test: 39-week repeated oral dose toxicity study in cynomolgus monkeys; assay type: in vivo; settings: 10, 30, 100 mg/kg oral, 39 weeks
Protocol: A GLP-compliant 39-week repeated oral dose study was performed in cynomolgus monkeys at dosages of 10, 30, and 100 mg/kg.

[3] = test system: Salmonella typhimurium TA100, TA1535, TA98, TA1537 and Escherichia coli WP2uvrA; test: Mutagenicity study using bacteria (pre-incubation method); assay type: cell-based; settings: five strains; metabolic activation method and direct method
Protocol: The gene mutagenicity by the present compound was examined using bacteria.
A study was conducted in the presence of a metabolic activator (hereinafter referred to as a “metabolic activation method”) and in the absence of a metabolic activator (hereinafter referred to as a “direct method”) by a pre-incubation method, using three strains, i.e., Salmonella typhimurium TA100 and TA1535, and Escherichia coli WP2uvrA, to detect base pair substitution gene mutations, and two strains, i.e., Salmonella typhimurium TA98 and TA1537, to detect frameshift gene mutations.

[4] = test system: immature rat bone marrow erythrocytes; test: Micronucleus study in rats; settings: in vivo
Protocol: The present compound was orally administered to rats to examine its micronucleus-inducing properties and bone marrow cell proliferation suppressive effect on immature bone marrow erythrocytes.
Specifically, the present compound was orally administered to rats twice 24 hours apart, and bone marrow smears were prepared 18 to 24 hours after the last administration. 2000 immature erythrocytes (IEs) were observed per individual, and the percentage of micronucleated immature erythrocytes (micronucleated IEs, MNIEs) contained in the immature erythrocytes [MNIEs (%)] was calculated. In addition, 1000 erythrocytes were observed as the total erythrocyte count per individual, and the percentage of IEs in the total erythrocytes [IEs (%)] was determined.

hERG current = target: T1, hERG current (Homo sapiens, UniProt Q12809); test: Effect on hERG current (whole-cell patch clamp); assay type: cell-based; settings: 0.1, 1, 10 µM; up to 10 µM; 10 minutes after application; hERG-expressing HEK293 cells
T1 construct: expressed in transfected cells; host or cells: HEK293
Protocol: The effect of the present compound on hERG current was examined by a whole-cell patch clamp method using HEK293 cells transfected with the human ether-a-go-go-related gene (hERG). This study was performed as part of a safety pharmacology core battery study to predict the risk of a drug-induced proarrhythmic effect, in particular, prolongation of QT interval on an electrocardiogram, in an in vitro study. The concentration of the present compound was set to 0.1, 1, and 10 µM, and the tail peak current suppression rate (%) 10 minutes after application relative to that before application was used as an index of the effect on hERG current. As a vehicle control, 0.1 v/v% DMSO was used, and as a positive control, 0.1 µmol/L of E-4031 was used.

t-PA = t-PA activity in blood, phase I repeated oral dose study; assay type: in vivo, human
Protocol: The pharmacological activities (PAI-1 activity and t-PA activity) were evaluated using blood collected from the subjects before and after administration of the present compound or the placebo as test samples. Blood was collected before administration and 2, 4, and 8 hours after administration on the first day of the experiment (day 1) and day 7 after the start of the experiment, and on the other days, blood was collected once a day before administration (only before administration on days 2 to 6, day 8, and day 11 after the start of administration).
After collecting blood samples from the subjects, the samples were treated with 0.5 M sodium citrate (pH of 4.3) and centrifuged at 4° C., 2,500 g for 15 minutes to obtain plasma. The collected plasma was used for measurement of t-PA activity and stored frozen at -80° C. until measurement.
The t-PA activity was measured using a ZYMUPHEN tPA Activity kit (produced by HYPHEN BioMed). In this system, a plasma sample collected from a subject is reacted with human plasminogen to form plasmin by the action of tPA, the plasmin is reacted with a substrate specific to plasmin, and pNA, which is a degradation product produced, is measured by the absorbance at a wavelength of 405 nm with a plate reader.

T1 sequence (Q12809 whole entry): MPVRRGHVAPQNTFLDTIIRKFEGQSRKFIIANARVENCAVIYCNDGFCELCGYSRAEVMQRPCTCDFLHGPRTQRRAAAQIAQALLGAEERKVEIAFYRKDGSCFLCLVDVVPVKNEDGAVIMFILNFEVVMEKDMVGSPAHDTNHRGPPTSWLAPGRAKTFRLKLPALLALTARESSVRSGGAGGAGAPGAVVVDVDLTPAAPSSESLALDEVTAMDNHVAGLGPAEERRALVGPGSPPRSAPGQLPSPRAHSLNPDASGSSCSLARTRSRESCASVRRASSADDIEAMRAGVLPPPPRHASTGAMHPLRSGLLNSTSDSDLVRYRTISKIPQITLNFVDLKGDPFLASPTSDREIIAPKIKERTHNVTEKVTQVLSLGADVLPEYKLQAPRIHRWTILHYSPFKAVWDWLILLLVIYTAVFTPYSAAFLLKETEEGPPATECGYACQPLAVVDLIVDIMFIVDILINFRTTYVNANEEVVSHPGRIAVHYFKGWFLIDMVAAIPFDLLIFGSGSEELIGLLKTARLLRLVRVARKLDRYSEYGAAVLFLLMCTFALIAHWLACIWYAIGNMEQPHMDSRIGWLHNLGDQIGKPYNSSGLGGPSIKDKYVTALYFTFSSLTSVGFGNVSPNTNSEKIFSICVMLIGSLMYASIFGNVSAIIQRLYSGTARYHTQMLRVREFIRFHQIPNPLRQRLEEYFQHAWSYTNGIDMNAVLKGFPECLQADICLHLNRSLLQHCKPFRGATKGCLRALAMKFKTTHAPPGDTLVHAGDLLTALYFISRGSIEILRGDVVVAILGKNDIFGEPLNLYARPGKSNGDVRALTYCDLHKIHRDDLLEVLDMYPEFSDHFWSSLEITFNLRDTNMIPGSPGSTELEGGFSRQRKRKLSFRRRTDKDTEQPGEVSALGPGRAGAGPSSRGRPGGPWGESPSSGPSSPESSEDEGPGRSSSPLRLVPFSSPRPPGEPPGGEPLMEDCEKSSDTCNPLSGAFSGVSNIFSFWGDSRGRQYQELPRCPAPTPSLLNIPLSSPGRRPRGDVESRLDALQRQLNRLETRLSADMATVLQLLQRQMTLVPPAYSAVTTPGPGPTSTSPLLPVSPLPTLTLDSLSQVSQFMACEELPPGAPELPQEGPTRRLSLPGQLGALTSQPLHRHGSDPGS

O=C(Nc1ccc(Cl)cc1C(=O)[O-])c1cccc(-c2cccc3cccnc23)c1.[Na+] [present compound, sodium 5-chloro-2-({ [3-(quinolin-8-yl)phenyl]carbonyl}amino)benzoate]
occlusion time ([1]; 2 hours before procedure): prolongs the occlusion time in a dose-dependent manner | bleeding time vs vehicle group ([1]; tail lancet 20 minutes after ferric chloride): no significant difference | initial occlusion time vs vehicle group ([2]; 0.3 mg/kg oral, P<0.05): Significant prolongation | cumulative occlusion time vs vehicle group ([2]; 0.1, 0.3, 1.0, 3.0 mg/kg oral, P<0.01, dose-dependent): significant reductions | minimum effective dosage ([2]; oral administration to monkeys): 0.1 mg/kg | deaths during the administration period (cynomolgus monkeys): No deaths | effect on general condition, body weight, food consumption, ophthalmology, ECG, hematology, urinalysis, necropsy, organ weights (cynomolgus monkeys): No effect | mutagenesis effect [3]: no mutagenesis effect | micronucleus-inducing effect on immature rat bone marrow erythrocytes [4]: no micronucleus-inducing effect | proliferation suppressive effect on bone marrow cells [4]: no proliferation suppressive effect | suppressive effect on hERG current (tail peak current suppression rate) (hERG current): no suppressive effect | t-PA activity in blood vs placebo (t-PA; 60 mg/day oral, days 1 and 7): neither PAI-1 activity nor t-PA activity was different | time after administration of maximal increase in t-PA activity (t-PA; 120 mg/day oral): 8 h | t-PA activity in blood (t-PA; 120 mg/day oral, days 1 and 7): increased
